# In PMC6161601 (Journal of Enzyme Inhibition and Medicinal Chemistry, 2018):
# “And” between values parts separate entries of the source, which are not always exact repeats. Equal entries are not always repeated. “Also recorded” adds a separate entry of the source. Where two headings read alike, the source gives them in different places.
# Tests used:
# [1] = biological target: T1, human plasma butyrylcholinesterase (BuChE) (Homo sapiens, UniProt P06276); assay: Kinetic parameters and type of BuChE inhibition (Hanes–Woolf); assay type: biochemical; conditions: for Vmax(i) BuChE: mean ± SD
# T1 construct: Plasma for determination of BuChE activity was obtained by centrifuging the blood; from tissue; host or cells: plasma of healthy human donors
# Method: (§1) The absorbance was recorded at λ = 436 nm using a CECIL 2021 spectrophotometer (CECIL Instruments Limited, Cambridge, UK) with a thermostatic water flow (temperature 37° C).
# (§2) AChE Selectivity Index (SI) was calculated with the aid of the following formula: SI = IC50 of BChE/IC50 of AChE. In turn BuChE SI was defined as IC50 of AChE/IC50 of BChE. Linear regression (Hanes–Woolf plots) were used to estimate the maximal velocity (Vmax) and the Michaelis constant (Km).
# (§3) To establish the type of inhibition, additional experiments were conducted with various concentrations of substrates (ATC, BTC), and the kinetic parameters of the enzymatic reactions were obtained using Hanes–Woolf equation, which is a graphical representation of enzyme kinetics in which the ratio of the initial substrate concentration [S] to the reaction velocity v is plotted against [S]. […]
# [2] = system: human umbilical vein endothelial cells (HUVECs); assay: HUVEC viability and integrity, real-time electrical impedance system (unpublished data); assay type: cell-based
# Method: At lower concentrations of substrate, BuChE activity is related to Michaelis–Menten kinetics and its enzymatic activity is based on the formation of an enzyme–substrate complex [ES]. At higher substrate levels (> 1 mM) BuChE presents greater activity related to the formation of a substrate-activated complex [SES][33]. […] This fact is of vital importance when studying BuChE inhibitors as in vivo the concentration of ACh in the synaptic cleft is estimated to be about 5 mM^33, which imply that substrate activated form of BuChE is present in the synaptic cleft.
# erythrocytes = conditions: 6–1500 μmol/L; cited from earlier work
# BuChE = biological target: T2, BuChE (Homo sapiens, UniProt P06276); assay: BuChE inhibition with excess of substrate (BTC); assay type: biochemical; conditions: for inhibition at 375 µM: compound at 375 µmol/L
# T2 construct: Plasma for determination of BuChE activity was obtained by centrifuging the blood; from tissue; host or cells: plasma of healthy human donors
# [3] = Intracellular uptake in in vitro cellular model (unpublished data); assay type: in vitro ADME; conditions: depending on the cell line
# AChE = biological target: T3, AChE (Homo sapiens, UniProt P22303); assay type: biochemical
# T3 construct: 400-fold diluted solution of haemolysed erythrocytes or diluted plasma (200 times) was incubated; from tissue; host or cells: haemolysed erythrocytes of healthy human donors
# Aβ42 peptide = biological target: T4, Aβ42 peptide (Homo sapiens, UniProt P05067); assay: Beta-amyloid (Aβ 1–42) aggregation, SensoLyte ThT kit; assay type: biochemical
# T4 construct: Beta-amyloid (Aβ 1–42) aggregation studies were conducted using SensoLyte ThT Aβ42 Aggregation kit; purchased AnaSpec, Inc, Fremont, CA
# Method: Beta-amyloid (Aβ 1–42) aggregation studies were conducted using SensoLyte ThT Aβ42 Aggregation kit (AnaSpec, Inc, Fremont, CA). Aβ42 peptide was dissolved in cold (4 °C) assay buffer and left to hydrate for a few minutes. The solution was spined at 10,000 rpm for 5 min at 4 °C to centrifuge out any precipitated material. […] The final volume of the test samples was 100 µL. Simultaneously, the positive control and negative control containing morin at the final concentration of 100 µmol/L were established. […] The measurements of fluorescence intensity expressed as relative fluorescence units (RFU) were taken for 90 min with 5 min intervals. The fluorescence intensity measured for positive control equals 100% of Aβ aggregation and was used for estimation of inhibition properties of tested biguanides.
# Statistical analysis of data obtained in Aβ aggregation assay was conducted with a commercially available package (GraphPad Prism 5, La Jolla, CA). The results were expressed as the mean ± standard deviation (SD) of measurements conducted in triplicates or quadruplicates. One or two-way ANOVA and subsequent post hoc tests were used for intergroup comparisons. The results were considered significant at p values lower than 0.05.
# [4] = biological target: T5, human erythrocyte acetylcholinesterase (AChE) (Homo sapiens, UniProt P22303); assay: Kinetic parameters and type of AChE inhibition (Hanes–Woolf); assay type: biochemical; conditions: for Vmax(i) AChE: mean ± SD
# T5 construct: from tissue; host or cells: haemolysed erythrocytes of healthy human donors
# Method: as §1, §2, §3
# [5] = biological target: T1, human plasma butyrylcholinesterase (BuChE); assay: biochemical
# Method: (§4) Blood samples were obtained from healthy donors from the Voievodal Specialized Hospital in Łódź, Poland (Wojewódzki Specjalistyczny Szpital im. Dr W. Biegańskiego w Łodzi). The blood was collected into vacuum tubes containing sodium citrate. Erythrocytes were separated from plasma by centrifugation (3000 × g, 10 min, 20 °C) with a Micro 22 R centrifuge (Hettich ZENTRIFUGEN, Tuttlingen, Germany) and washed three times with 0.9% saline. Afterwards, red cells were haemolysed by freezing and stored at a temperature of –30 °C; before each experiment, they were restored at 37° C for 15 min and used to determine AChE activity. […] The studies on the biological material were approved by the Bioethics Committee of the Medical University of Lodz (RNN/27/18/KE).
# (§5) The activity of both cholinesterases (AChE and BuChE) were conducted using a spectrophotometric method developed by Ellman with previously described modifications[25]^,[30]. […] 400-fold diluted solution of haemolysed erythrocytes or diluted plasma (200 times) was incubated for 15 min (37° C) with DTNB and tested compound at an appropriate concentration, and the reaction was started by addition of substrate (ATC or BTC). The final volume of a sample was 500 µL.
# as §2
# [6] = biological target: T5, human erythrocyte acetylcholinesterase (AChE); assay: biochemical
# Method: as §4, §5, §2
# [7] = biological target: T1, human plasma butyrylcholinesterase (BuChE); conditions: published previously; cited from earlier work
# T5 sequence (P22303 other isoform, or with tags, fused parts or gaps): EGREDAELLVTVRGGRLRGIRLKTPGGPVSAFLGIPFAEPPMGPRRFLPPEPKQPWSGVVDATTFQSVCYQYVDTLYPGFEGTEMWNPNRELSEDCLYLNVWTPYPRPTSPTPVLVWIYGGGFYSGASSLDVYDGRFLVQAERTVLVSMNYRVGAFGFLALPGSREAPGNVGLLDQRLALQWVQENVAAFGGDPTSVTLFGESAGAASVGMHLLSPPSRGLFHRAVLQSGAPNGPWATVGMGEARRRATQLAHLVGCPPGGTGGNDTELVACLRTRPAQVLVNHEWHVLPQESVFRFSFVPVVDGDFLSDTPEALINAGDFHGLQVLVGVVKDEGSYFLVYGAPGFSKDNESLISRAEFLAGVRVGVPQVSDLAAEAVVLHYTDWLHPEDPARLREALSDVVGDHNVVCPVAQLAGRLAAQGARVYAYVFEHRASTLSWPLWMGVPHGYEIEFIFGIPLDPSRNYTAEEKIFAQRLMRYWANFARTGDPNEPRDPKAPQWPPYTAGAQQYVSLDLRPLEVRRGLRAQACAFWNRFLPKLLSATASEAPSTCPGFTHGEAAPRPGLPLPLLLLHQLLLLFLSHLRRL
# T4 sequence (P05067 672-713): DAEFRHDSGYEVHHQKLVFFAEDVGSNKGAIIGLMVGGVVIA
# T2 sequence (P06276 29-602): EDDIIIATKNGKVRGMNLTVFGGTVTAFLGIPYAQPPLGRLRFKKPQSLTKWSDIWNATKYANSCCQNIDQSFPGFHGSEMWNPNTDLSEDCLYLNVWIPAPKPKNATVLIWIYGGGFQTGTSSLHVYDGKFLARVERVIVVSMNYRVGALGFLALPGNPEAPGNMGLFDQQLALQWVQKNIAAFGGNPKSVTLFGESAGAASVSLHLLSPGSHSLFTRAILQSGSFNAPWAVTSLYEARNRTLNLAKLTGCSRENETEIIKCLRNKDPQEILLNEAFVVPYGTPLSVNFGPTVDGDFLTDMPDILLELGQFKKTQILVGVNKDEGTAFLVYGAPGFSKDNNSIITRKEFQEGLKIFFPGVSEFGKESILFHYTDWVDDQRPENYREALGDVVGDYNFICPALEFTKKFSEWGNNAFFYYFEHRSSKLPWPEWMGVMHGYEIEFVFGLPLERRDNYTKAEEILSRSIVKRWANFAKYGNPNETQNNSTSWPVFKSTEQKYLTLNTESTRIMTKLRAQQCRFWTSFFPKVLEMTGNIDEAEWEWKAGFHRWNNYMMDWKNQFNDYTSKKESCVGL
# T1 sequence (P06276 29-602): as above
# T3 sequence (P22303 other isoform, or with tags, fused parts or gaps): as the sequence (P22303 other isoform, or with tags, fused parts or gaps) above
structure (smiles),measurement,setting,value
CN(C)C(=N)N=C(N)NS(=O)(=O)c1ccc(C(F)(F)F)cc1[N+](=O)[O-] [Compound 5],"I: type of inhibition, BuChE",[1],M (M: mixed type)
same,type of BuChE inhibition,[1],mixed inhibition; also recorded: mixed manner; also recorded: Mixed type
same,"vmax BuChE, mean ± SD",[1]; B: inhibitor at 1/3 of IC50,242.44 ± 12.47 mA/min
same,Vmax(i) BuChE,[1]; B: inhibitor at 1/3 of IC50,0.242 ± 0.012 A/min
same,"vmax BuChE, mean ± SD",[1]; C: inhibitor at IC50,202.78 ± 2.42 mA/min
same,Vmax(i) BuChE,[1]; C: inhibitor at IC50,0.202 ± 0.002 A/min
same,"vmax BuChE, individual experiments B1–B3",[1]; inhibitor at 1/3 of IC50,243.730 mA/min and 229.384 mA/min and 254.233 mA/min
same,"vmax BuChE, individual experiments C1–C3",[1]; inhibitor at IC50,204.771 mA/min and 200.088 mA/min and 203.508 mA/min
same,decrease in HUVEC adhesion and viability,"[2]; 300 μmol/L, 12–72 h of incubation",~20%
same,effect on HUVEC viability,[2]; 6–100 μmol/L,did not affect cell viability
same,erythrocytes membrane disintegration,erythrocytes,does not contribute to the erythrocytes membrane disintegration
same,"BuChE inhibition, maximal","BuChE; BTC 2.5 μmol/mL, various compound concentrations (Figure 8B)",up to 31.89 ± 6.22%
same,inhibition at 375 µM,BuChE; BTC 0.75 mmol/L,27.5 ± 8.61%
same,inhibition at 375 µM,BuChE; BTC 2.5 mmol/L,≤ 15.6%
same,intracellular uptake relative to metformin,[3],70–80 fold
same,type of AChE inhibition,AChE; at 1/2 IC50 for AChE,mixed-type
same,Vmax AChE,"AChE; each at 1/2 IC50 for AChE: metformin 1175, donepezil 0.0125, compound 5 106.0 µmol/L, alone or in mixture",0.206 ± 0.008 A/min
same,activity vs morin 100 µmol/L,"Aβ42 peptide; 100 µmol/L, two-way ANOVA",significantly lower in comparison with morin
same,inhibitory property vs morin 100 µmol/L,"Aβ42 peptide; 200 µmol/L, two-way ANOVA, p > 0.05",comparable with those of morin
same,inhibition at 200 µM,"Aβ42 peptide; 200 µmol/L, vs control",~20%
same,Aβ aggregation decreased up to,"Aβ42 peptide; 100 and 200 µmol/L, after 60 min of reaction initiation",~80%
same,"I: type of inhibition, AChE",[4],M (M: mixed type)
same,type of AChE inhibition,[4],mixed-type; also recorded: mixed inhibition; also recorded: mixed way
same,"vmax AChE, mean ± SD",[4]; B: inhibitor at 1/3 of IC50,175.32 ± 33.25 mA/min
same,Vmax(i) AChE,[4]; B: inhibitor at 1/3 of IC50,0.175 ± 0.033 A/min
same,"vmax AChE, mean ± SD",[4]; C: inhibitor at IC50,146.12 ± 40.50 mA/min
same,Vmax(i) AChE,[4]; C: inhibitor at IC50,0.146 ± 0.040 A/min
same,"vmax AChE, individual experiments B1–B3",[4]; inhibitor at 1/3 of IC50,183.000 mA/min and 204.073 mA/min and 138.914 mA/min
same,"vmax AChE, individual experiments C1–C3",[4]; inhibitor at IC50,173.750 mA/min and 165.000 mA/min and 99.631 mA/min
same,SI BuChE,[5]; IC50(AChE)/IC50(BChE),0.31
same,IC50,"[5]; human plasma BuChE, mean ± SD of three independent experiments",686 ± 86.4 µM
same,SI AChE,[6]; IC50 BChE/IC50 AChE,3.23
same,inhibition at 150 µM,[6]; compound at 150.0 µmol/L,35 ± 7.18%
same,IC50,"[6]; human erythrocyte AChE, mean ± SD of three independent experiments",212 ± 48.3 µM
"[H]/N=C(/N)N/C(=N/[H])NCCc1ccccc1 [Phenformin, phenformin, reference compound]",IC50,[7],259 ± 31 µM
same,inhibition at 150 µM,[5]; at 150 µmol/L,44.7 ± 1.23%
